In patent US20250154212A1, “METHOD OF DISRUPTING MEMORY AND LIPOPEPTIDE FOR USE IN SUCH METHOD” (The Research Foundation for The State University of New York, priority 2023, published 2025):
“Also recorded” adds a separate entry of the source. Where no end group is shown, it is not given here. The star is where a group is joined. Myristoyl = CCCCCCCCCCCCCC(=O)*

Assays:
Format in all cases: in vivo, mouse
[1] = tested on: contextual fear/threat memory in PKMζ-null mice; assay: Contextual fear/threat conditioning, infusion into dorsal hippocampus, PKMζ-null mice; conditions: 10 nmol in 0.5 μl per hemisphere in hippocampus, tested 24 h post-infusion
Experimental: (§1) Mice were 8-10 weeks old at the time of cannulation and 9-11 weeks at the beginning of behavioral experiments. Mice were housed with cage-mates in plastic cages and provided with food and water ad libitum. Mice were maintained on a 12 h light/dark cycle (lights on at 7:00 am) and behavioral experiments began at 9:00 am.
(§2) Mice were injected intraperitoneally (1 ml/100 g body weight) with an anesthetic cocktail containing ketamine (10 mg/ml) and xylazine (2 mg/ml). Mice were provided with analgesic treatment prior to surgery (carprofen; 5 mg/ml). Guide cannulae (Plastics One, Roanoke, VA) were implanted bilaterally in the dorsal hippocampus (from bregma: AP-2.1 mm; L+/−1.8 mm; DV-1.2 mm) and secured to the skull with three jeweler's screws and dental cement. Antisedan (0.66 ml/100 g body weight of 0.5 mg drug/ml solution) was given via i.p. injection after surgery to reverse the anesthesia.
(§3) For 7 days following surgery, mice were handled by freely exploring the experimenter's palm for 2-5 min. Mice were trained and tested in the same conditioning box (Coulbourn Habitest, Coulboum Instruments), which consisted of a grid floor and blank walls. […] Freezing behavior (cessation of all movement except breathing) during the 4 min session was recorded by an experimenter blind to the conditions. […]

[2] = tested on: contextual fear/threat memory; assay: Contextual fear/threat conditioning, infusion into dorsal hippocampus, wild-type mice; conditions: 10 nmol in 0.5 μl per hemisphere in hippocampus, tested 24 h post-infusion
Experimental: as §1, §2, §3

[3] = tested on: spatial long-term memory in PKMζ-null mice; assay: Active place avoidance, intrahippocampal injection, PKMζ-null mice; conditions: 5 nmol in 0.5 μl per hippocampus 1 day after conditioning, tested 2 days post-injection
Experimental: For spatial long-term memory experiments, we adapted the approach used in Garcia-Osta et al. (82). Mice were ˜12-weeks old at surgery. Briefly, to implant the injection cannula hardware, mice were anesthetized by an intraperitoneal (i.p.) injection of a mixture of dexmedetomidine ([…] body weight) and ketamine (28 mg/kg body weight), and mounted in a Kopf stereotaxic frame (Tujunga, CA). The tips of guide cannula (Plastics One, Roanoke, VA; Part Numbers: C235GS-5-2.0) were targeted above the injection target in the dorsal hippocampus (AP-1.94 mm; ML±1.00 mm; DV-0.90 mm). The other injection hardware (Part Numbers: C235DCs-5, 303DC/1; cannula dummy, cannula cap, respectively) was assembled, and antisedan (0.65 mg/kg body weight i.p.) was administered to reverse the sedation at the end of surgery.
Three to four weeks after surgery, the animals received active place avoidance training. […]
Active place avoidance was conducted with a commercial computer-controlled system (Bio-Signal Group, Acton, MA). […] Every 33 ms, the software determined the mouse's position, whether it was in the shock zone, and whether to deliver shock. […]
The tracked animal positions with timestamps were analyzed offline (TrackAnalysis, Bio-Signal Group, Acton, MA) to extract several end-point measures. […]

| Compound | contextual fear/threat memory (% time freezing) [1] | contextual fear/threat memory (% time freezing) [2] | spatial memory retention (time to first enter shock zone), 3-day memory [3] |
| --- | --- | --- | --- |
| O=S(=O)(O)c1cc(O)c2c(S(=O)(=O)O)cc(S(=O)(=O)O)cc2c1 [ζ-stat, 1-naphthol-3,6,8-trisulphonic acid] | has no effect | has no effect | avoided the shock zone as well as those that had received vehicle; also recorded: not different than vehicle |
| myr-N-FVRNSLERRSVRMKRPS-C (Myristoyl-FVRNSLERRSVRMKRPS) [K-ZAP] |  |  | has no effect on memory retention; also recorded: intact memory retention |
